The source of these data is patent US9260425B2 (Genetech, Inc., priority 2011, dated 2016).

For orientation: Ki means a measure of affinity in units of concentration, obtained from inhibition or displacement. Low readings indicate tighter binding, high ones weaker binding. Usually IC50 stands for the concentration at which inhibition is half-maximal. As usually defined, the EC50 is the concentration that produces a half-maximal response.

The target in one experiment is Pim-1 (Homo sapiens (Human), UniProt P11309). Nature of the experiment: Pim kinase binding activity assay (Example 901), PIM-1 enzyme, Caliper microfluidic peptide phosphorylation. The experiment is classed as biochemical. To be noted: 20 pM PIM-1, 10 μM ATP, 1 μM FAM-peptide, 90 minutes at room temperature. In outline:
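The readout was microfluidic mobility-shift separation of a FAM-tagged Pim-specific peptide, excited at 488 nm and read at 530 nm, with Ki calculated from percent conversion. Reactions held 20 pM PIM-1, 1 μM peptide and 10 μM ATP in pH 7.2 HEPES/MgCl2/DTT buffer, ran 90 min at room temperature and were stopped with EDTA.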

A further experiment has as its system BaF3 parental cells. Nature of the experiment: In vitro cell proliferation potency assay, BaF3 parental line with IL-3 (Cell Titer Glo). To be noted: Mus musculus, 2 ng/mL mIL-3, incubated overnight, read-out: Prolif. BaF3 IL3 (IC50). The class given is cell-based, murine. How it is done:
(§1) In Vitro Cell Proliferation Potency Assays
(§2) BaF3 parental line was obtained from the DSMZ repository. BaF3 lines transfected with PIM-1 or PIM-2 were generated. Mouse IL-3 was purchased from R&D Systems. G418 was purchased from Clontech. Media for BaF3 parental line contained RPMI, 10% FBS, 2 mM L-Glutamine, 2 ng/mL mIL-3. Media for BaF3 PIM1 & 2 lines contained RPMI, 10% FBS, 2 mM L-Glutamine, […]. Media for MM1.S (multiple myeloma cells) line contained RPMI, 10% FBS, 2 mM L-Glutamine.
(§3) BaF3, a murine interleukin-3 dependent pro-B cell line, parental cells, BaF3 PIM1 cells, BaF3 PIM-2 cells, and MM1.S (multiple myeloma) cells were seeded at 2 k/well, 5 k/well, 5 k/well, and 10 k/well respectively, in a 384-well plate, at 45 μL/well. Test compound was added at 5 μL/well. BaF3 cells (parental and transfected) were incubated overnight, while MM1.S cells were incubated for 72 hours at 37° C., 5% CO2. Cell Titer Glo Reagent (Promega) was added at 50 μL/well, the plates were incubated for 30 minutes, and their luminescence read on an HT Analyst. IC50/EC50 values for the test compound were calculated.
A general note: In ATP-based viability assays light output follows the ATP content of the culture.

The test system of another experiment is BaF3 PIM1 cells. The experiment in a line: In vitro cell proliferation potency assay, BaF3 line transfected with PIM-1 (Cell Titer Glo). To be noted: Mus musculus, incubated overnight, read-out: Prolif. BaF3 PIM-1 (IC50). The class given is cell-based, murine. How it is done: as §1
BaF3 parental line was obtained from the DSMZ repository. […] Mouse IL-3 was purchased from R&D Systems. G418 was purchased from Clontech. Media for BaF3 parental line contained RPMI, 10% FBS, 2 mM L-Glutamine, 2 ng/mL mIL-3. Media for BaF3 PIM1 & 2 lines contained RPMI, 10% FBS, 2 mM L-Glutamine, […]. Media for MM1.S (multiple myeloma cells) line contained RPMI, 10% FBS, 2 mM L-Glutamine.
as §3

For experiment [1], the system named is MM1.S (multiple myeloma) cells. The experiment in a line: In vitro cell proliferation potency assay, MM1.S cells (Cell Titer Glo). The class given is cell-based. Particulars: Homo sapiens, 72 hours, read-out: Prolif. MM1S ATP (EC50). How it is done:
as §1, §2, §3

Pim-1, sequence (P11309 whole entry): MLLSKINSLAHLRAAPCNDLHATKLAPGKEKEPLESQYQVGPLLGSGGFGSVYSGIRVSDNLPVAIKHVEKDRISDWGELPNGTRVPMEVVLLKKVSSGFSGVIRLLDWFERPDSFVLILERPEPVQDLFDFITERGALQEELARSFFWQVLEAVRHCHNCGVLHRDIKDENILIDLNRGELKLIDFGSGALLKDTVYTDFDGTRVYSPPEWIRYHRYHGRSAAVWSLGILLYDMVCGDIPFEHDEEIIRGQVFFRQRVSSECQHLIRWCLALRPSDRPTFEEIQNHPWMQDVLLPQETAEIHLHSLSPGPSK

On Pim-1, `Cn1cc(-c2cc3c(-c4ccc(Br)c(N5CCC[C@H](N)C5)n4)n[nH]c3cn2)cn1` [Example 376, (S)-1-(3-bromo-6-(5-(1-methyl-1H-pyrazol-4-yl)-1H-pyrazolo[3,4-c]pyridin-3-yl)pyridin-2-yl)piperidin-3-amine] displayed a Ki of 0.009 nM. In addition, the half-inhibitory concentration (IC50) with BaF3 parental cells is 4100 nM; with BaF3 PIM1 cells, 30.9 nM. Also, the EC50 in experiment [1] was determined as 356 nM.
For `CCn1cc(-c2cc3c(-c4cccc(N5CCC[C@H](NC)C5)n4)n[nH]c3cn2)cn1` [Example 377, (S)-1-(6-(5-(1-ethyl-1H-pyrazol-4-yl)-1H-pyrazolo[3,4-c]pyridin-3-yl)pyridin-2-yl)-N-methylpiperidin-3-amine], in that order: 0.08 nM, 5300 nM, 63.7 nM and 230 nM.
As for `CC(C)Cn1cc(-c2cc3c(-c4cccc(N5CCNCC5)n4)n[nH]c3cn2)cn1` [Example 381, 5-(1-isobutyl-1H-pyrazol-4-yl)-3-(6-(piperazin-1-yl)pyridin-2-yl)-1H-pyrazolo[3,4-c]pyridine], affinity on Pim-1 was put at a Ki of 0.057 nM. Besides, the values for the half-inhibitory concentration (IC50) with BaF3 parental cells and in the experiment with BaF3 PIM1 cells were 2200 nM and 129 nM, respectively. The EC50 in experiment [1] came out at 228 nM.
Consider `Cn1cc(-c2cc3c(-c4cccc(N5CCCC(C)(O)C5)n4)n[nH]c3cn2)cn1` (stereo not drawn) [Example 383, 3-methyl-1-(6-(5-(1-methyl-1H-pyrazol-4-yl)-1H-pyrazolo[3,4-c]pyridin-3-yl)pyridin-2-yl)piperidin-3-ol], for which, on Pim-1, the affinity, expressed as Ki, was 0.078 nM. For the same compound, the values for the IC50 with BaF3 parental cells and in the experiment with BaF3 PIM1 cells were 1300 nM and 110 nM, respectively. In addition, the EC50 in experiment [1] was 170 nM.
`c1cc(-c2n[nH]c3cnc(-c4cnn(C5CCC5)c4)cc23)nc(N2CCNCC2)c1` [Example 390, 5-(1-cyclobutyl-1H-pyrazol-4-yl)-3-(6-(piperazin-1-yl)pyridin-2-yl)-1H-pyrazolo[3,4-c]pyridine] showed a Ki at Pim-1 of 0.132 nM. The IC50 with BaF3 parental cells is 5700 nM; in the experiment on BaF3 PIM1 cells it was 58.5 nM. In addition, the 50% effective concentration (EC50) in experiment [1] came out at 130 nM.
`Cc1cncc(-c2cc3c(-c4cccc(N5CCNCC5)n4)n[nH]c3cn2)n1` [Example 505, 5-(6-methylpyrazin-2-yl)-3-(6-(piperazin-1-yl)pyridin-2-yl)-1H-pyrazolo[3,4-c]pyridine] had a Ki at Pim-1 of 0.01 nM. Besides, the IC50 in the experiment on BaF3 parental cells was found to be 2300 nM; in the experiment on BaF3 PIM1 cells, 40.2 nM. The EC50 in experiment [1] came out at 97.9 nM.
